Laboratory results as given in patent publication US20180155344A1, “TRICYCLIC PIPERIDINE COMPOUNDS” (ACTELION PHARMACEUTICALS LTD, priority 2015, published 2018).
Like-named read-outs stand apart in the source and are kept apart here.

Target: T1, human TPH1 (Homo sapiens, UniProt P17752)
T1 sequence (P17752 1-444): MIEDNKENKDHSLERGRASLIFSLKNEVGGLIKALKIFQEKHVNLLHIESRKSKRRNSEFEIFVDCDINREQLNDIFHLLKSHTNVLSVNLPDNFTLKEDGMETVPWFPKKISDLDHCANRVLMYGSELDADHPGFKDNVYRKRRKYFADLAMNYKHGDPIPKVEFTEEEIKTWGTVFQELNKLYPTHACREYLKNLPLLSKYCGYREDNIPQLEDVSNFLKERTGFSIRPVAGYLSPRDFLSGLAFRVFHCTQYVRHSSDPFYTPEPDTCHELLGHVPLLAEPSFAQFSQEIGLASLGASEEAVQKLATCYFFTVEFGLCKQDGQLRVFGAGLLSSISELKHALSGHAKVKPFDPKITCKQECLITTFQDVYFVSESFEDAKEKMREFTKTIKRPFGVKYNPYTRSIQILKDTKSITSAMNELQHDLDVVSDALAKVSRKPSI
Assay: biochemical
From the text: Biochemical In Vitro Assay Using Fluorescence Readout
To generate the enzyme, full length human TPH1 is cloned into the plasmid pET20b(+) (Novagen) and expressed in E. coli. The bacterial cells are ruptured by sonication on ice and the lysate is cleared by centrifugation. The resulting protein in the pellet is re-extracted and TPH1 is purified from the obtained lysate by affinity chromatography using a pterin cosubstrate analog immobilized to the resin of the column. The protein is further purified by size exclusion chromatography to remove protein aggregates. The activity of TPH1 is determined by using a fluorescence assay. The enzyme activity assay is carried out at 15° C. with atmosphere oxygen for the duration of 60 minutes in a volume of 64 μl. The reaction is carried out in a 0.1 M Tris-HCl buffer, adjusted to pH 7.6, containing 1 mM DTT, 0.2 mg/mL catalase, 100 μM (±)-6-methyl-5,6,7,8-tetrahydropterine dihydrochloride, 40 μM L-tryptophan, and 40-80 nM of TPH1. The reaction is started by bringing together L-tryptophan with all the other reaction substituents and stopped by quenching with perchloric acid (HClO4). The amount of 5-hydroxy-L-tryptophan produced during the enzymatic reaction is determined by fluorescence readout. Fluorescence, as determined at 540 nm when excited at 300 nm wavelength, increases proportionally to the 5-hydroxy-L-tryptophan formed. Compounds are prepared as 10 mM stock solution in DMSO, then diluted in 384-well plates using DMSO followed by a transfer of the dilutions into the assay plate. Fluorescence is measured for each well and the fluorescence at 540 nm wavelength is compared to the fluorescence of the vehicle in place of compound. […] The calculated IC50 values may fluctuate depending on the daily biochemical assay performance. Fluctuations of this kind are known to those skilled in the art.

[1] = Table 1, full length human TPH1, 40 μM L-tryptophan, 15° C., 60 minutes, mean if determined several times

| Compound | IC50 | further results |
| --- | --- | --- |
| 1-(1-(3,4-dimethoxyphenyl)-7-(trifluoromethyl)-3,4-dihydroimidazo[1,2-a:5,4-c′]dipyridin-2(1H)-yl)-2-(3-(trifluoromethyl)phenoxy)ethan-1-one [Example 3.1.10] |  | IC50 (Table 3, inhibitory activity on tryptophan hydroxylase 1): 251 nM |
| 1-(1-(4-(aminomethyl)phenyl)-7-(trifluoromethyl)-3,4-dihydroimidazo[1,2-a:5,4-c′]dipyridin-2(1H)-yl)-2-(2-chloro-4-(morpholinomethyl)phenoxy)ethan-1-one [Example 3.31.2] |  | IC50 [1]: 145 nM |
| 1-(1-(4-(aminomethyl)phenyl)-7-(trifluoromethyl)-3,4-dihydroimidazo[1,2-a:5,4-c′]dipyridin-2(1H)-yl)-2-(naphthalen-2-yloxy)ethan-1-one [Example 3.31.1] |  | IC50 [1]: 73 nM |
| 2-((6-(aminomethyl)-2-chloropyridin-3-yl)oxy)-1-(9-(5-cyclopropyl-3-fluoropyridin-2-yl)-6,9-dihydropyrido[4′,3′:4,5]imidazo[1,2-b]pyridazin-8(7H)-yl)ethan-1-one [Example 16.2.4] |  | IC50 [1]: 401 nM |
| COc1ccc(C2c3c(nc4ccccn34)CCN2C(=O)COc2cc(C)ccc2C)cc1OC (centres unmarked) [Example 1.1.1, 1-(1-(3,4-dimethoxyphenyl)-3,4-dihydroimidazo[1,2-a:5,4-c′]dipyridin-2(1H)-yl)-2-(2,5-dimethylphenoxy)ethan-1-one] | 418 nM |  |
| COc1ccc(C2c3c(nc4ccccn34)CCN2C(=O)COc2ccc(C)cc2C)cc1OC (centres unmarked) [Example 1.1.2, 1-(1-(3,4-dimethoxyphenyl)-3,4-dihydroimidazo[1,2-a:5,4-c′]dipyridin-2(1H)-yl)-2-(2,4-dimethylphenoxy)ethan-1-one] | 180 nM |  |
| COc1ccc(C2c3c(nc4ccccn34)CCN2C(=O)COc2cccc3ccccc23)cc1OC (centres unmarked) [Example 1.1.3, 1-(1-(3,4-dimethoxyphenyl)-3,4-dihydroimidazo[1,2-a:5,4-c′]dipyridin-2(1H)-yl)-2-(naphthalen-1-yloxy)ethan-1-one] | 134 nM |  |
| COc1ccc(C2c3c(nc4ccccn34)CCN2C(=O)COc2ccc(Cl)cc2Cl)cc1OC (centres unmarked) [Example 1.1.4, 2-(2,4-dichlorophenoxy)-1-(1-(3,4-dimethoxyphenyl)-3,4-dihydroimidazo[1,2-a:5,4-c′]dipyridin-2(1H)-yl)ethan-1-one] | 69 nM |  |
| COc1ccc(C2c3c(nc4ccccn34)CCN2C(=O)COc2ccc3ccccc3c2)cc1OC (centres unmarked) [Example 1.1.5, 1-(1-(3,4-dimethoxyphenyl)-3,4-dihydroimidazo[1,2-a:5,4-c′]dipyridin-2(1H)-yl)-2-(naphthalen-2-yloxy)ethan-1-one] | 24 nM |  |
| COc1ccc(C2c3c(nc4ccccn34)CCN2C(=O)COc2ccc3ccccc3c2C)cc1OC (centres unmarked) [Example 1.1.6, 1-(1-(3,4-dimethoxyphenyl)-3,4-dihydroimidazo[1,2-a:5,4-c′]dipyridin-2(1H)-yl)-2-((1-methylnaphthalen-2-yl)oxy)ethan-1-one] | 12 nM |  |
| CCc1c(OCC(=O)N2CCc3nc4ccccn4c3C2c2ccc(OC)c(OC)c2)ccc2ccccc12 (centres unmarked) [Example 1.1.7, 1-(1-(3,4-dimethoxyphenyl)-3,4-dihydroimidazo[1,2-a:5,4-c′]dipyridin-2(1H)-yl)-2-((1-ethylnaphthalen-2-yl)oxy)ethan-1-one] | 4 nM |  |
| COc1ccc(C2c3c(nc4ccccn34)CCN2C(=O)COc2ccc3ccccc3c2Br)cc1OC (centres unmarked) [Example 1.1.8, 2-((1-bromonaphthalen-2-yl)oxy)-1-(1-(3,4-dimethoxyphenyl)-3,4-dihydroimidazo[1,2-a:5,4-c′]dipyridin-2(1H)-yl)ethan-1-one] | 9 nM |  |
| COc1ccc(C2c3c(nc4ccccn34)CCN2C(=O)COc2ccc3ccccc3c2Cl)cc1OC (centres unmarked) [Example 1.1.9, 2-((1-chloronaphthalen-2-yl)oxy)-1-(1-(3,4-dimethoxyphenyl)-3,4-dihydroimidazo[1,2-a:5,4-c′]dipyridin-2(1H)-yl)ethan-1-one] | 8 nM |  |
| CCOC(=O)c1cc(OCC(=O)N2CCc3nc4ccccn4c3C2c2ccc(OC)c(OC)c2)c(CC)cc1C (centres unmarked) [Example 1.1.10, ethyl 5-(2-(1-(3,4-dimethoxyphenyl)-3,4-dihydroimidazo[1,2-a:5,4-c′]dipyridin-2(1H)-yl)-2-oxoethoxy)4-ethyl-2-methylbenzoate] | 92 nM |  |
| CCc1cc(C)c(C(N)=O)cc1OCC(=O)N1CCc2nc3ccccn3c2C1c1ccc(OC)c(OC)c1 (centres unmarked) [Example 1.1.11, 5-(2-(1-(3,4-dimethoxyphenyl)-3,4-dihydroimidazo[1,2-a:5,4-c′]dipyridin-2(1H)-yl)-2-oxoethoxy)-4-ethyl-2-methylbenzamide] | 248 nM |  |
| CCc1cc(C)c(C(=O)NC)cc1OCC(=O)N1CCc2nc3ccccn3c2C1c1ccc(OC)c(OC)c1 (centres unmarked) [Example 1.1.12, 5-(2-(1-(3,4-dimethoxyphenyl)-3,4-dihydroimidazo[1,2-a:5,4-c′]dipyridin-2(1H)-yl)-2-oxoethoxy)-4-ethyl-N,2-dimethylbenzamide] | 141 nM |  |
| O=C(COc1ccc(CN2CCOCC2)cc1Cl)N1CCc2nc3ccccn3c2C1c1cccnc1F (centres unmarked) [Example 1.2.1, 2-(2-chloro-4-(morpholinomethyl)phenoxy)-1-(1-(2-fluoropyridin-3-yl)-3,4-dihydroimidazo[1,2-a:5,4-c′]dipyridin-2(1H)-yl)ethan-1-one] | 209 nM |  |
| COc1ccc(C2c3c(nc4ccccn34)CCN2C(=O)COc2ccc(CN3CCOCC3)nc2Cl)c(F)c1 (centres unmarked) [Example 1.3.1, 2-((2-chloro-6-(morpholinomethyl)pyridin-3-yl)oxy)-1-(1-(2-fluoro-4-methoxyphenyl)-3,4-dihydroimidazo[1,2-a:5,4-c′]dipyridin-2(1H)-yl)ethan-1-one] | 84 nM |  |
| COc1ccc(C2c3c(nc4ccccn34)CCN2C(=O)COc2ccc(NS(C)(=O)=O)nc2Cl)c(F)c1 (centres unmarked) [Example 1.3.2, N-(6-chloro-5-(2-(1-(2-fluoro-4-methoxyphenyl)-3,4-dihydroimidazo[1,2-a:5,4-c′]dipyridin-2(1H)-yl)-2-oxoethoxy)pyridin-2-yl)methanesulfonamide] | 40 nM |  |
| COc1ccc(C2c3c(nc4ccccn34)CCN2C(=O)COc2ccc(C(=O)NC3CC3)nc2Cl)c(F)c1 (centres unmarked) [Example 1.3.3, 6-chloro-N-cyclopropyl-5-(2-(1-(2-fluoro-4-methoxyphenyl)-3,4-dihydroimidazo[1,2-a:5,4-c′]dipyridin-2(1H)-yl)-2-oxoethoxy)picolinamide] | 19 nM |  |
| Cc1cc(Cl)ccc1OCC(=O)N1CCc2nc3ccccn3c2C1c1ccc(Cl)cc1F (centres unmarked) [Example 1.4.1, 1-(1-(4-chloro-2-fluorophenyl)-3,4-dihydroimidazo[1,2-a:5,4-c′]dipyridin-2(1H)-yl)-2-(4-chloro-2-methylphenoxy)ethan-1-one] | 18 nM |  |
| CCc1ncccc1OCC(=O)N1CCc2nc3ccccn3c2C1c1ccc(Cl)cc1F (centres unmarked) [Example 1.4.2, 1-(1-(4-chloro-2-fluorophenyl)-3,4-dihydroimidazo[1,2-a:5,4-c′]dipyridin-2(1H)-yl)-2-((2-ethylpyridin-3-yl)oxy)ethan-1-one] | 55 nM |  |
| O=C(COc1cccnc1Cl)N1CCc2nc3ccccn3c2C1c1ccc(Cl)cc1F (centres unmarked) [Example 1.4.3, 1-(1-(4-chloro-2-fluorophenyl)-3,4-dihydroimidazo[1,2-a:5,4-c′]dipyridin-2(1H)-yl)-2-((2-chloropyridin-3-yl)oxy)ethan-1-one] | 271 nM |  |
| O=C(COc1ccc(CN2CCOCC2)nc1Cl)N1CCc2nc3ccccn3c2C1c1ccc(Cl)cc1F (centres unmarked) [Example 1.4.4, 1-(1-(4-chloro-2-fluorophenyl)-3,4-dihydroimidazo[1,2-a:5,4-c′]dipyridin-2(1H)-yl)-2-((2-chloro-6-(morpholinomethyl)pyridin-3-yl)oxy)ethan-1-one] | 90 nM |  |
| O=C(COc1ccc(N2CCOCC2)nc1Cl)N1CCc2nc3ccccn3c2C1c1ccc(Cl)cc1F (centres unmarked) [Example 1.4.5, 1-(1-(4-chloro-2-fluorophenyl)-3,4-dihydroimidazo[1,2-a:5,4-c′]dipyridin-2(1H)-yl)-2-((2-chloro-6-morpholinopyridin-3-yl)oxy)ethan-1-one] | 5 nM |  |
| CCc1nc(C)ccc1OCC(=O)N1CCc2nc3ccccn3c2C1c1ccc(Cl)cc1F (centres unmarked) [Example 1.4.6, 1-(1-(4-chloro-2-fluorophenyl)-3,4-dihydroimidazo[1,2-a:5,4-c′]dipyridin-2(1H)-yl)-2-((2-ethyl-6-methylpyridin-3-yl)oxy)ethan-1-one] | 78 nM |  |
